Source: publication PMC9530881 (Cancer Science, 2022)

Key:
[1] = tested on: cancer cachexia model mice (LLC cells); test: LLC cancer cachexia model mice, MID-35 and/or anamorelin; type: in vivo, C57BL/6J mice; details: MID-35 i.m. and/or anamorelin p.o.; 22 days after LLC transplantation; Figure 6B
[2] = men who received 100 mg in a clinical trial; ref not given; cited from earlier work
[3] = tested on: cancer cachexia patients; details: cited from earlier work
[4] = tested on: ghrelin receptor; details: ref [8]; cited from earlier work
[5] = tested on: MSTN; type: cell-based; details: HepG2, (SBE)4-luc; MSTN 10 ng/ml, 8 h; MID-35 3 μM or SB-431542 10 μM, 1 h pretreatment; n = 3
[6] = tested on: TGF‐β; type: cell-based; details: HepG2, (SBE)4-luc; TGF-β 5 ng/ml, 8 h; MID-35 3 μM or SB-431542 10 μM, 1 h pretreatment; n = 3
[7] = tested on: GDF‐11; type: cell-based; details: HepG2, (SBE)4-luc; GDF-11 10 ng/ml, 8 h; MID-35 3 μM or SB-431542 10 μM, 1 h pretreatment; n = 3
[8] = tested on: MSTN; test: Smad2/3 nuclear localization induced by MSTN in C2C12 cells; type: cell-based; details: MID-35 3 μM or SB-431542 10 μM preincubated 1 h with MSTN 10 ng/ml
[9] = tested on: ALK4; details: ref [26]; cited from earlier work
[10] = tested on: ALK7; details: ref [26]; cited from earlier work
[11] = tested on: ALK5; details: ref [26]; cited from earlier work
[12] = tested on: vascular function; details: via binding to BMP9 and BMP10; ref [36]; cited from earlier work
[13] = patients with non-small-cell lung cancer, ref [9], [10], [11]

CN(C)N(C)C(=O)[C@@]1(Cc2ccccc2)CCCN(C(=O)[C@@H](Cc2c[nH]c3ccccc23)NC(=O)C(C)(C)N)C1 [anamorelin]
gastrocnemius weight per body weight without tumor [1]: increased | plasma Cmax average [2]: 707 ± 307 ng/mL | lean body mass ([3]; clinical trial, cancer cachexia patients, ref not given): increased lean body mass | appetite ([3]; patients with cancer cachexia, oral, ref [8]): augments appetite | QOL [3, 13]: improvement of QOL | weight gain [3, 13]: contribute to weight gain | ghrelin receptor activity [4]: ghrelin receptor agonist

NC(=O)c1ccc(-c2nc(-c3ccc4c(c3)OCO4)c(-c3ccccn3)[nH]2)cc1 [SB‐431542]
inhibition of MSTN-induced transcriptional activity [5]: suppressed | inhibition of TGF-β-induced reporter activity [6]: suppressed | inhibition of GDF-11-induced reporter activity [7]: suppressed | Smad2 nuclear accumulation [8]: completely blocked | ALK4 kinase inhibition [9]: known kinase inhibitor | ALK7 kinase inhibition [10]: known kinase inhibitor | ALK5 kinase inhibition [11]: known kinase inhibitor

B1: ActRIIB: activin receptor type IIB; binds to both BMP9 and BMP10 (protein, UniProt Q13705 19-512, looked up)
Activin receptor type-2B: SGRGEAETRECIYYNANWELERTNQSGLERCEGEQDKRLHCYASWRNSSGTIELVKKGCWLDDFNCYDRQECVATEENPQVYFCCCEGNFCNERFTHLPEAGGPEVTYEPPPTAPTLLTVLAYSLLPIGGLSLIVLLAFWMYRHRKPPYGHVDIHEDPGPPPPSPLVGLKPLQLLEIKARGRFGCVWKAQLMNDFVAVKIFPLQDKQSWQSEREIFSTPGMKHENLLQFIAAEKRGSNLEVELWLITAFHDKGSLTDYLKGNIITWNELCHVAETMSRGLSYLHEDVPWCRGEGHKPSIAHRDFKSKNVLLKSDLTAVLADFGLAVRFEPGKPPGDTHGQVGTRRYMAPEVLEGAINFQRDAFLRIDMYAMGLVLWELVSRCKAADGPVDEYMLPFEEEIGQHPSLEELQEVVVHKKMRPTIKDHWLKHPGLAQLCVTIEECWDHDAEARLSAGCVEERVSLIRRSVNGTTSDCLVSLVTSVTNVDLPPKESSI
vascular side-effects [12]: vascular side‐effects
